Columns and labels:
POMC gene expression = assay: Particle induced POMC gene expression in human epidermal keratinocytes (qRT-PCR); format: cell-based
Procedure: (§1) Gene expression was induced by different model particles. […] The details are set out in Table 1:
(§2) Gene expression was analyzed via qRT-PCR.
(§3) Ginger root CO2 extract has been dissolved in DMSO and diluted in medium. […] Gene expression was analyzed via qRT-PCR. […] Table 7 compiles the results for ginger root CO2 extract altered POMC and IL-6 gene expression
(§4) Purple coneflower pressed juice has been dissolved directly in medium. […] Gene expression was analyzed via qRT-PCR. […] Table 8 compiles the results for purple coneflower pressed juice altered POMC and IL-6 gene expression
(§5) Gene expression was analyzed via qRT-PCR. […] Table 9 compiles the results for purple coneflower pressed juice altered POMC and IL-6 gene expression

5-lipoxygenase = target: T1, 5-lipoxygenase (Homo sapiens, UniProt P09917); settings: described in WO 200 230385 A2 (Henkel); cited from earlier work
T1 sequence (P09917 1-674): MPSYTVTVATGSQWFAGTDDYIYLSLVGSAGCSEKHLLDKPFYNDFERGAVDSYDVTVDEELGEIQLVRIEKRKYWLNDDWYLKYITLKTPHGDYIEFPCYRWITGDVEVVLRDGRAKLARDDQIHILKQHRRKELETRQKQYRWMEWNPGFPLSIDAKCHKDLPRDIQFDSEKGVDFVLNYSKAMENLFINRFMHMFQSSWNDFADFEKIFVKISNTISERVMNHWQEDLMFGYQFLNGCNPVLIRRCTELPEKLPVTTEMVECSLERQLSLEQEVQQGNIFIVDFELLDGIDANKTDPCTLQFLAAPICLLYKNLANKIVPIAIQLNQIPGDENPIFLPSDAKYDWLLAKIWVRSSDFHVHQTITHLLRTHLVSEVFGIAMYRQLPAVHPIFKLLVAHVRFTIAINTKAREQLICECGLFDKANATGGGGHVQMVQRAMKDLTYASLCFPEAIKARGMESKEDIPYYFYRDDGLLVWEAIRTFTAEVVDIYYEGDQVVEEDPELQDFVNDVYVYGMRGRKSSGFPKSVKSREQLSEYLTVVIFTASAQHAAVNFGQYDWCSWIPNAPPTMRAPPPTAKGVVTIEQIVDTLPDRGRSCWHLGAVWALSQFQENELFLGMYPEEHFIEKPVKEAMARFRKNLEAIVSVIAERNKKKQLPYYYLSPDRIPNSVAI

cyclooxygenase-1 = cyclooxygenase-1 (Homo sapiens, UniProt P23219); settings: described in WO 200 230385 A2 (Henkel); cited from earlier work
Sequence of cyclooxygenase-1 (P23219 24-599, species assumed): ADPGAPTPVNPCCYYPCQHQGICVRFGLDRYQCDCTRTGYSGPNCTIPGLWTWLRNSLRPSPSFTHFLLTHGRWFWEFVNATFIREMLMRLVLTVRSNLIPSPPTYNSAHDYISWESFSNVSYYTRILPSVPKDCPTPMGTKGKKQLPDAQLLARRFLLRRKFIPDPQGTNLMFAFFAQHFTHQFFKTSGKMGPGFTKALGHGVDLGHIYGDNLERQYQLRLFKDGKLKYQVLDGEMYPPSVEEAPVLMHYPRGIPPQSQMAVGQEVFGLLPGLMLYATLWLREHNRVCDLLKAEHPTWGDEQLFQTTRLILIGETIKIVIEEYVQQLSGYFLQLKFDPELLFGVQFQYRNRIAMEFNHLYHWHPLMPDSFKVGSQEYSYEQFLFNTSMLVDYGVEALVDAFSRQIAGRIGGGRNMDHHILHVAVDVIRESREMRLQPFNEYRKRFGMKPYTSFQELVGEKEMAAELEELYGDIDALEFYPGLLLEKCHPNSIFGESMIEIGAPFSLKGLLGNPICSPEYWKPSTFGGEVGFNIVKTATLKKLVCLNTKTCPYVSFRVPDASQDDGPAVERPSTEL

CYP1A1 gene expression = assay: Particle induced CYP1A1 gene expression in human epidermal keratinocytes (qRT-PCR); format: cell-based; settings: for CYP1A1 Induction mean ± SE: 10 μM BDDI
Procedure: as §1, §2

IL-6 gene expression = assay: Particle induced IL-6 gene expression in human epidermal keratinocytes (qRT-PCR); format: cell-based
Procedure: as §1, §2, §3, §4, §5

MMP1 gene expression = assay: Particle induced MMP1 gene expression in human epidermal keratinocytes (qRT-PCR); format: cell-based
Procedure: as §1, §2

AhR = target: T2, AhR (Homo sapiens, UniProt P35869); settings: stated as known; cited from earlier work
T2 sequence (P35869 11-848): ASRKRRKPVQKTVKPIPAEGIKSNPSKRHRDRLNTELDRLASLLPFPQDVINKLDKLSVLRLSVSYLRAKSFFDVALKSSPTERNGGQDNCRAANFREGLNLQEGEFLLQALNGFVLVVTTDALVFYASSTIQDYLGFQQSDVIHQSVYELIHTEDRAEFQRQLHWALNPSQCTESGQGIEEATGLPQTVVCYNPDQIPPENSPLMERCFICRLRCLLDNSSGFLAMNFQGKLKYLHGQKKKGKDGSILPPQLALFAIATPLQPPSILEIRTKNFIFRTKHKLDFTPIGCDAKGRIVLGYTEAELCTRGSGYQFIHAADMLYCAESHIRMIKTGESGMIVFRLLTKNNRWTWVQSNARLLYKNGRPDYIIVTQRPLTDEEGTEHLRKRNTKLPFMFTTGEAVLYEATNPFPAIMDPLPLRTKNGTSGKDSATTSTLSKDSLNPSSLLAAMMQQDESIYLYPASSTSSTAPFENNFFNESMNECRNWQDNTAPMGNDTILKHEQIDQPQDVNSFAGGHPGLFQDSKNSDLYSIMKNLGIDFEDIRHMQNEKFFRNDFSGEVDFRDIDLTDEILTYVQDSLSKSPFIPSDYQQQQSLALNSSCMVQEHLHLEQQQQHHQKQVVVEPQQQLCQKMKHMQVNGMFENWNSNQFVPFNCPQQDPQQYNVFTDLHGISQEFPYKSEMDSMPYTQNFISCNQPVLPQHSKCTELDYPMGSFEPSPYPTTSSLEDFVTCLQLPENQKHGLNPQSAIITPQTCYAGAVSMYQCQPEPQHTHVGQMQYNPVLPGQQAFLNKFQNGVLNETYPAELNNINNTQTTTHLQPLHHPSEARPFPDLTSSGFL

Row | CYP1A1 Induction mean ± SE (CYP1A1 gene expression; NHEK adult, 6 h, SRM1650 1.5 μg/cm2, untreated = 1, particles alone 2.90) | CYP1A1 Induction mean ± SE (CYP1A1 gene expression; NHEK adult, 6 h, SRM2975 1.5 μg/cm2, untreated = 1, particles alone 1.03) | CYP1A1 Induction mean ± SE (CYP1A1 gene expression; NHEK adult, 24 h, SRM2975 1.5 μg/cm2, untreated = 1, particles alone 4.90) | inhibition of particle induced Cyp1A1 gene expression (in words) (CYP1A1 gene expression; indoor as well as outdoor model particles) | CYP1A1 Induction mean ± SE (CYP1A1 gene expression; indoor particles Huber990 1.5 μg/cm2, 6 h, untreated = 1, particles alone 2.70) | CYP1A1 Induction mean ± SE (CYP1A1 gene expression; indoor particles Huber990 1.5 μg/cm2, 24 h, untreated = 1, particles alone 2.90) | Molecule | inhibition of particle induced POMC gene expression (in words) (POMC gene expression) | inhibition of 5-lipoxygenase (in words) (5-lipoxygenase) | inhibition of cyclooxygenase-1 activity (in words) (cyclooxygenase-1) | inhibition of particle induced IL-6 gene expression (in words) (IL-6 gene expression) | inhibition of particle induced MMP1 gene expression (in words) (MMP1 gene expression) | upregulation of the AhR by UVB radiation (in words) (AhR)
1 | – | – | – | – | – | – | CC1(C)CCC[C@]2(C)C3CC(=O)O[C@]3(C)CC[C@@H]12 (stereo partly drawn) [Sclareolide, (3aR,5aS,9aS,9bR)-decahydro-3a,6,6,9a-tetramethyl-naphtha[2,1-b]furan-2(1H)-one] | capable to inhibit | inhibition | inhibition | – | – | –
2 | – | – | – | – | – | – | C=C[C@](C)(O)CC[C@@H]1[C@@]2(C)CCCC(C)(C)[C@@H]2CC[C@@]1(C)O [sclareol, reference compound] | – | inhibition | inhibition | – | – | –
3 | 0.02 ± 0.00 | 0.20 ± 0.00 | 0.01 ± 0.00 | capable to inhibit | 0.05 ± 0.00 | 0.20 ± 0.00 | E/Z-2-benzylindene-5,6-dimethoxy-3,3-dimethylindan-1-one [BDDI] | capable to inhibit | – | – | capable to inhibit | capable to inhibit | prevent the upregulation

From patent US10780042B2, “Cosmetic compositions” (Symrise AG, priority 2015, dated 2020)
